Target: T1, androgen receptor (Homo sapiens, UniProt P10275, T878A)
T1 construct: host or cells: LNCaP.FGC
Test: Androgen receptor degradation assay using Western blot analysis
Type: cell-based
Conditions: for remaining activity at 0.1 µM: 24 h, read-out: Androgen Receptor Remaining (%), LNCaP.FGC cells, 100 nM, 24 hr, normalized to GAPDH, untreated cells = 100%; for DC50: read-out: AR DC50 (concentration needed for 50% AR degradation), serial 10x dilutions from 100 nM
Procedure, shortened: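 LNCaP.FGC cells (2×10^5/well) treated with 10-fold serial dilutions in RPMI from 100 nM stock; untreated cells as negative control. AR Western signal normalized to GAPDH, expressed as % remaining versus untreated (100%). DC50 derived from calibration curve of serial dilutions.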

T1 sequence (P10275 whole entry T878A): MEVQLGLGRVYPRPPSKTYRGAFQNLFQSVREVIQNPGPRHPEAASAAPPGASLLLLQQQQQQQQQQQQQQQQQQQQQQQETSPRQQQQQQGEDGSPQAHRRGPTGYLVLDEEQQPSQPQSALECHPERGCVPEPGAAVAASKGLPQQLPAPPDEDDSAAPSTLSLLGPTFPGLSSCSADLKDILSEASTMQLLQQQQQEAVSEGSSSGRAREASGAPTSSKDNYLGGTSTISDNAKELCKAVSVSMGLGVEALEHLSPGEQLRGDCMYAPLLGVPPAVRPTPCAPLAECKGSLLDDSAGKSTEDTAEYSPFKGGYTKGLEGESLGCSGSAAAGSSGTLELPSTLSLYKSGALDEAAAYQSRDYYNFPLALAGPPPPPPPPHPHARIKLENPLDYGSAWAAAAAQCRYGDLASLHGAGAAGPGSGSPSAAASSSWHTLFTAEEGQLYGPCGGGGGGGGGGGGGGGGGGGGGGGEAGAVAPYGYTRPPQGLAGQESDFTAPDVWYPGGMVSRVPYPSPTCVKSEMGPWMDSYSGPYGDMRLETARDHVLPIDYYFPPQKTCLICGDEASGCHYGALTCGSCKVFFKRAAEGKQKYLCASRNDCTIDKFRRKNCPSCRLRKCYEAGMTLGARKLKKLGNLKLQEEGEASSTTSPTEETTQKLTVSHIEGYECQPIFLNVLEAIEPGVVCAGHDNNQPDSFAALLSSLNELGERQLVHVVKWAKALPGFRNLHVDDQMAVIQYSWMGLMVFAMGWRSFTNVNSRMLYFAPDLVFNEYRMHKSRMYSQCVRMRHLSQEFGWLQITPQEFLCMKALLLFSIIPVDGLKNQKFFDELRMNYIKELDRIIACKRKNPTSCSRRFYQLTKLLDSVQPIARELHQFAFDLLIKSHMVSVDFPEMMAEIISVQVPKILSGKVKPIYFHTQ
T1 sequence (Q96SW2 whole entry partner): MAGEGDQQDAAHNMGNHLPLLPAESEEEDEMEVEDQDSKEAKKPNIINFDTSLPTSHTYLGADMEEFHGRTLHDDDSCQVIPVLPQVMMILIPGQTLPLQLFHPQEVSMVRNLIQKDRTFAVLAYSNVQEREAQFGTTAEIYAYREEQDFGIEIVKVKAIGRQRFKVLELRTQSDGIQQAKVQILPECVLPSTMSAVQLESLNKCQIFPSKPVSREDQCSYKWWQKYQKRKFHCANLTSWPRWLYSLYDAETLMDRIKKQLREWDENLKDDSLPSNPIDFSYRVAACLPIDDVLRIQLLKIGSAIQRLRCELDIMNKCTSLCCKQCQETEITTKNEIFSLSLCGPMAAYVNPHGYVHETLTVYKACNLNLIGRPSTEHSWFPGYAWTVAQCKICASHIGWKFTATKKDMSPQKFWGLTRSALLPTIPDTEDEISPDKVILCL

SMILES | remaining activity at 0.1 µM | DC50 (LNCaP.FGC cells) | Androgen Receptor Remaining (%) (LNCaP.FGC cells, 100 nM, 24 hr, normalized to GAPDH, untreated cells = 100%)
CCn1c2c(c3ccc(OCCOCCN4CCN(c5ccc(C(=O)N[C@H]6CC[C@H](Oc7ccc(C#N)c(Cl)c7)CC6)nn5)CC4)cc31)C(=O)N(C1CCC(=O)NC1=O)C2=O (stereo partly shown) [Compound 113] | 26% | 10 to 25 nM | –
CCn1c2c(c3ccc(OCCOCCN4CCN(c5ccc(C(=O)N[C@H]6CC[C@H](N(C)c7ccc(C#N)c(Cl)c7)CC6)nn5)CC4)cc31)C(=O)N(C1CCC(=O)NC1=O)C2=O (stereo partly shown) [Compound 114] | 21% | 10 to 25 nM | –
CCn1c2c(c3ccc(OCCOCCN4CCN(c5ccc(C(=O)N[C@H]6CC[C@H](Oc7ccc(C#N)c(Cl)c7)CC6)nn5)CC4)cc31)C(=O)N(C1CCC(=O)NC1=O)C2=O (stereo partly shown) [Compound 115] | – | 25 to 100 nM | 26%
CCn1c2c(c3ccc(OCCCCCN4CCN(c5ccc(C(=O)N[C@H]6CC[C@H](N(C)c7ccc(C#N)c(Cl)c7)CC6)nn5)CC4)cc31)C(=O)N(C1CCC(=O)NC1=O)C2=O (stereo partly shown) [Compound 116] | 37% | 25 to 100 nM | –
CCn1c2c(c3ccc(OCCCN4CCN(c5ccc(N6C(=S)N(c7ccc(C#N)c(C(F)(F)F)c7)C(=O)C6(C)C)cc5)CC4)cc31)C(=O)N(C1CCC(=O)NC1=O)C2=O (stereo not shown) [Compound 117] | 56% | – | –
CCn1c2c(c3ccc(OCCN4CCN(c5ccc(N6C(=S)N(c7ccc(C#N)c(C(F)(F)F)c7)C(=O)C6(C)C)cc5)CC4)cc31)C(=O)N(C1CCC(=O)NC1=O)C2=O (stereo not shown) [Compound 118] | 80% | – | –
CCn1c2c(c3ccc(OCC(=O)N4CCN(c5ccc(C(=O)N[C@H]6CC[C@H](Oc7ccc(C#N)c(Cl)c7)CC6)nn5)CC4)cc31)C(=O)N(C1CCC(=O)N(CO)C1=O)C2=O (stereo partly shown) [Compound 120] | 48% | 25 to 100 nM | –
CCn1c2c(c3ccc(OCC(=O)N4CCN(c5ccc(C(=O)N[C@H]6CC[C@H](Oc7ccc(C#N)c(Cl)c7)CC6)nn5)CC4)cc31)C(=O)N(C1CCC(=O)NC1=O)C2=O (stereo partly shown) [Compound 121] | 48% | 25 to 100 nM | –
CCn1c2c(c3ccc(OCC(=O)N4CCC5(CC4)CN(c4ccc(C(=O)N[C@H]6CC[C@H](Oc7ccc(C#N)c(Cl)c7)CC6)nn4)C5)cc31)C(=O)N(C1CCC(=O)N(CO)C1=O)C2=O (stereo partly shown) [Compound 122] | 33% | > 100 nM | –
CCn1c2c(c3ccc(OCC(=O)N4CCC5(CC4)CN(c4ccc(C(=O)N[C@H]6CC[C@H](Oc7ccc(C#N)c(Cl)c7)CC6)nn4)C5)cc31)C(=O)N(C1CCC(=O)NC1=O)C2=O (stereo partly shown) [Compound 123] | 33% | > 100 nM | –
CCn1c2c(c3ccc(OCC(=O)N4CCN(c5ccc(C(=O)N[C@H]6CC[C@H](N(C)c7ccc(C#N)c(Cl)c7)CC6)nn5)CC4)cc31)C(=O)N(C1CCC(=O)N(CO)C1=O)C2=O (stereo partly shown) [Compound 124] | 57% | – | –
CCn1c2c(c3ccc(OCC(=O)N4CCN(c5ccc(C(=O)N[C@H]6CC[C@H](N(C)c7ccc(C#N)c(Cl)c7)CC6)nn5)CC4)cc31)C(=O)N(C1CCC(=O)NC1=O)C2=O (stereo partly shown) [Compound 125] | 57% | – | –
CCn1c2c(c3ccc(OCC(=O)N4CC5(CCN(c6ccc(C(=O)N[C@H]7CC[C@H](Oc8ccc(C#N)c(Cl)c8)CC7)nn6)CC5)C4)cc31)C(=O)N(C1CCC(=O)N(CO)C1=O)C2=O (stereo partly shown) [Compound 126] | 58% | – | –
CCn1c2c(c3ccc(OCC(=O)N4CC5(CCN(c6ccc(C(=O)N[C@H]7CC[C@H](Oc8ccc(C#N)c(Cl)c8)CC7)nn6)CC5)C4)cc31)C(=O)N(C1CCC(=O)NC1=O)C2=O (stereo partly shown) [Compound 127] | 58% | – | –
CCn1c2c(c3ccc(OCC(=O)N4CCC5(CC4)CN(c4ccc(C(=O)N[C@H]6CC[C@H](N(C)c7ccc(C#N)c(Cl)c7)CC6)nn4)C5)cc31)C(=O)N(C1CCC(=O)N(CO)C1=O)C2=O (stereo partly shown) [Compound 128] | 63% | – | –
CCn1c2c(c3ccc(OCC(=O)N4CCC5(CC4)CN(c4ccc(C(=O)N[C@H]6CC[C@H](N(C)c7ccc(C#N)c(Cl)c7)CC6)nn4)C5)cc31)C(=O)N(C1CCC(=O)NC1=O)C2=O (stereo partly shown) [Compound 129] | 63% | – | –
CCn1c2c(c3ccc(OCC(=O)N4CCCN(c5ccc(C(=O)N[C@H]6CC[C@H](N(C)c7ccc(C#N)c(Cl)c7)CC6)nn5)CC4)cc31)C(=O)N(C1CCC(=O)N(CO)C1=O)C2=O (stereo partly shown) [Compound 130] | 51% | – | –
CCn1c2c(c3ccc(OCC(=O)N4CCCN(c5ccc(C(=O)N[C@H]6CC[C@H](N(C)c7ccc(C#N)c(Cl)c7)CC6)nn5)CC4)cc31)C(=O)N(C1CCC(=O)NC1=O)C2=O (stereo partly shown) [Compound 131] | 51% | – | –
CCn1c2c(c3ccc(OCCCN4CCC5(CCN(c6ccc(C(=O)N[C@H]7CC[C@H](Oc8ccc(C#N)c(Cl)c8)CC7)nn6)C5)C4)cc31)C(=O)N(C1CCC(=O)NC1=O)C2=O (stereo partly shown) [Compound 132] | 7% | 10 to 25 nM | –

Reference: patent US20250197409A1, “BIFUNCTIONAL COMPOUND AND PHARMACEUTICAL COMPOSITION COMPRISING THE BIFUNCTIONAL COMPOUND, AND METHOD FOR TREATING ANDROGEN RECEPTOR RELATED DISEASE BY USING THE SAME” (ANHORN MEDICINES CO., LTD., priority 2022, published 2025)
